Measured values from patent publication EP1100483B1, “GLUCOCORTICOID-SELECTIVE ANTI-INFLAMMATORY AGENTS” (Abbott Laboratories, priority 1998, dated 2000).

Each compound was assayed against T1, human androgen receptor (AR) (Homo sapiens, UniProt P10275) (assay: human androgen receptor (AR) cytosol binding assay, [3H]-dihydrotestosterone competition). Details: 1-2 nM [3H]-DHT, 4 °C for 18 hours; Cheng-Prusoff.
T1 construct: The full length human androgen receptor (AR) was derived from cDNA expressed in a baculovirus expression system; purchased Ligand Pharmaceuticals (San Diego, CA); host or cells: SF21 insect cells (baculovirus)
T1 sequence (P10275 1-920): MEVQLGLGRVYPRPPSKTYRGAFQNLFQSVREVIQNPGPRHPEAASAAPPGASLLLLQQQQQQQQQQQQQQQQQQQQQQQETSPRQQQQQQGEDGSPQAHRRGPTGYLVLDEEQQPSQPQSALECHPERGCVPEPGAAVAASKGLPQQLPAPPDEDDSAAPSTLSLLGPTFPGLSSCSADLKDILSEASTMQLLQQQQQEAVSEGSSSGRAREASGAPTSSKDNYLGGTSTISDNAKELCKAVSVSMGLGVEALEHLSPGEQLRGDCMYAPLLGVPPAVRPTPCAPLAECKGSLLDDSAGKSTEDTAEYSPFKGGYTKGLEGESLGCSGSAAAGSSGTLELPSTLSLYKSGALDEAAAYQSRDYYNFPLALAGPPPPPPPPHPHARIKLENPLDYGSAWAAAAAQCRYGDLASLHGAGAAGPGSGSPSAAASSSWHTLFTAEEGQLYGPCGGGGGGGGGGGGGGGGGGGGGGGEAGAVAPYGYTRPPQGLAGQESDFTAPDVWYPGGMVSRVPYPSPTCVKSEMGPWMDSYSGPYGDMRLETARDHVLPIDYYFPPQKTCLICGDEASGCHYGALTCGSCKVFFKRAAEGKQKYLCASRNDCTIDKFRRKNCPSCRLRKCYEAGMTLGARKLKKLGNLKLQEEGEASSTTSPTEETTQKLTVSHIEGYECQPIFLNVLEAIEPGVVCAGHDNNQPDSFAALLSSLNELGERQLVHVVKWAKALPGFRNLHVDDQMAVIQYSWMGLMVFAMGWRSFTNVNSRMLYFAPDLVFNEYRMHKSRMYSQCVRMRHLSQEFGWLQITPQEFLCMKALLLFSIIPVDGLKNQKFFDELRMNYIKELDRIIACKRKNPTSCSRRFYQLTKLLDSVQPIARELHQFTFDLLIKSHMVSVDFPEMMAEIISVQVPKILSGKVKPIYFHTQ
Source text: For human androgen receptor (AR) cytosol binding assays, [^3H]-dihydrotestosterone (DHT) (120-140 Ci/mmol) was purchased from Amersham Life Science (Arlington Heights, IL), DHT was purchased from Sigma Chemical Co. (St. Louis, MO), CHAPS and DTT were purchased from Boehringer Mannheim GmbH (W. Germany), and all other reagents were purchased from Sigma. The full length human androgen receptor (AR) was derived from cDNA expressed in a baculovirus expression system from Ligand Pharmaceuticals (San Diego, CA). The methods concerning growth, purification, and assays of recombinant viruses followed the protocol outlined by Summers, M.D., Smith, G.E., A Manual of Methods for Baculovirus Vectors and Insect Cell Culture Procedures, Tex. Agric. Exp. Stn. [Bull], 1987, No. 155, hereby incorporated by reference. The recombinant plasmids were cotransfected into SF21 cells with wild type AcNPV DNA, and the recombinant viruses were plaque purified.
A receptor extract was prepared from the baculovirus system , and aliquots were stored at -80 °C until used. Typical protein concentrations for these extracts were between 10 and 20 mg/ml. Stock solutions of DHT or other competing compounds were prepared as 5 mM stock solutions in either 100% ethanol or DMSO and serial dilutions were carried out in 1:1 DMSO-ethanol. The assay buffer consisted of the following: 25 mM sodium phosphate, 10 mM potassium fluoride, 10 mM sodium molybdate, 10% glycerol, 1.5 mM EDTA, 2 mM DTT, 2 mM CHAPS and 1 mM PMSF, pH=7.4 at room temperature.
Receptor assays were performed with a final volume of 250 µL containing from 50-75 µg of extract protein, plus 1-2 nM [^3H]-DHT and varying concentrations of competing ligand (0-10-5 M). Assays were set up using a 96-well minitube system and incubations were carried out at 4 °C for 18 hours. Equilibrium under these conditions of buffer and temperature was achieved by 6-8 hours. Nonspecific binding was defined as that binding remaining in the presence of 1000 nM unlabeled DHT. At the end of the incubation period, 200 µL of 6.25% hydroxyapatite was added in wash buffer (binding buffer in the absence of DTT and PMSF). Specific ligand binding to receptor was determined by a hydroxyapatite-binding assay according to the protocol outlined by Wecksler, W.R., Norman, A.W., An Hydroxylapatite Batch Assay for the Quantitation of 1α, 25-Dihydroxyvitamin D3-Receptor Complexes, Anal. Biochem. 1979, 92, 314-323, hereby incorporated by reference. Hydroxyapatite absorbs the receptor-ligand complex, allowing for the separation of bound from free radiolabeled ligand. The mixture was vortexed, incubated for 10 minutes at 4 °C, centrifuged, and the supernatant was removed. The hydroxyapatite pellet was washed twice more with the wash buffer. The amount of receptor-ligand complex was determined by liquid scintillation counting of the hydroxyapatite pellet after the addition of […] EcoScint A scintillation cocktail from National Diagnostics (Atlanta, GA.).
After correcting for nonspecific binding, IC50 values were determined. […] The IC50 values were determined graphically from a log-logit plot of the data. […] Standards are included in each assay and resulting Ki values are determined by use of a modified Cheng-Prusoff equation and used to calculate Ki values for "unknown analogs" outlined by DeBlasi, A., O'Reilly, K., Motulsky, H.J., Calculating Receptor Number from Binding Experiments Using Same Compound As Radioligand and Competitor, TIPS 1989, 10, 227-229, hereby incorporated by reference.

Row | SMILES | Ki
1 | CC(=O)OCCN(C)c1ccc(C(c2ccc(N(C)CCOC(C)=O)cc2)c2cc([N+](=O)[O-])ccc2Cl)cc1 [Example 31, 4',4" bis(N-(2-acetoxyethyl) N-methylamino)-2-chloro-5-nitrotriphenylmethane] | 3520 nM
2 | O=[N+]([O-])c1ccc(Cl)c(C(c2ccc(NCc3ccccc3)cc2)c2ccc(NCc3ccccc3)cc2)c1 [Example 36, 4',4" bis(N-benzylamino)-2-chloro-5-nitrotriphenylmethane] | 3730 nM
3 | CNc1ccc(C(c2ccc(NC)cc2)c2cc(Cl)ccc2Cl)cc1 [Example 27, 4',4" bis(methylamino)-2,5-dichlorotriphenylmethane] | 3240 nM
4 | CN(C)c1ccc(C(Sc2ccccc2)c2cc([N+](=O)[O-])ccc2Cl)cc1 (stereo not shown) [Example 54, phenyl-[(4'-dimethylaminophenyl)-(2-chloro-5-nitrophenyl)methyl]thioether] | 3730 nM
5 | CNc1ccc(C(c2ccc(NC)cc2)c2cc([N+](=O)[O-])ccc2Cl)cc1 [Example 23, 4',4" bis(methylamino)-2-chloro-5-nitrotriphenylmethane] | 4260 nM
6 | CNc1ccc(C(c2ccc(N(C)C)cc2)c2cc([N+](=O)[O-])ccc2Cl)cc1 (stereo not shown) [Example 39, 4'-dimethylamino-4"-methylamino-2-chloro-5-nitrotriphenylmethane] | 3730 nM
7 | CN(C)c1ccc(C(c2ccc(N(C)C)cc2)c2cc(Cl)ccc2Cl)cc1 [Example 24, 4',4" bis(dimethylamino)-2,5-dichlorotriphenylmethane] | 3730 nM
8 | CN(C)c1ccc(C(c2ccc(N(C)CCO)cc2)c2cc([N+](=O)[O-])ccc2Cl)cc1 (stereo not shown) [Example 42, 4'-dimethylamino-4"-(N-methyl-N-(2-hydroxyethyl)amino)-2-chloro-5-nitrotriphenylmethane] | 2800 nM
9 | CN(C)c1ccc(C(c2ccc(N(C)C)cc2)c2cc([N+](=O)[O-])ccc2Cl)cc1 [Example 1, 4',4" bis(dimethylamino)-2-chloro-5-nitrotriphenylmethane] | 3730 nM
10 | CNc1ccc(C(c2ccc(N(C)CCOC(C)=O)cc2)c2cc([N+](=O)[O-])ccc2Cl)cc1 (stereo not shown) [Example 49, 4'-methylamino-4"-(N-(2-acetoxyethyl)-N-methylamino)-2-chloro-5-nitrotriphenylmethane] | 1040 nM
11 | CN(C)c1ccc(C(Oc2ccccc2)c2cc([N+](=O)[O-])ccc2Cl)cc1 (stereo not shown) [Example 52, phenyl-[(4'-dimethylaminophenyl)-(2-chloro-5-nitrophenyl)methyl] ether] | > 10000 nM
12 | CC(=O)OCCN(C)c1ccc(C(c2ccc(N(C)C)cc2)c2cc([N+](=O)[O-])ccc2Cl)cc1 (stereo not shown) [Example 51, 4'-dimethylamino-4"-(N-methyl-N-(2-acetoxyethyl)amino)-2-chloro-5-nitrotriphenylmethane] | > 10000 nM
13 | CN(CCO)c1ccc(C(c2ccc(N(C)CCO)cc2)c2cc([N+](=O)[O-])ccc2Cl)cc1 [Example 32, 4',4" bis(N-(2-hydroxyethyl) N-methylamino)-2-chloro-5-nitrotriphenylmethane] | 3520 nM
